Test results from PubChem BioAssay AID588371 (Southern Research Specialized Biocontainment Screening …, 2011).
Several values for one entry are separate records, joined by “and”; a condition that tells them apart may be missing. Identical values can stand only once. Records with an inconclusive call do not appear. Activity calls are given as the source filed them. No rule for the calls is given here.

tested on: not listed separately; test: antiviral activity against West Nile virus in cells, dose response, cell-based, EC_1, probe candidates (AID 588371); details: West Nile virus-infected cells, antiviral inhibition; at 50 µM (top of the series)

Compound | inhibition
O=C(CSc1nc2cccc(F)c2c(=O)n1-c1ccccc1)Nc1ccc2c(c1)CCC2 | -0.4% (inactive)
O=C(CSc1nc2ccccc2c(=O)n1-c1cc(Cl)cc(Cl)c1)Nc1nccs1 | 18.5% (inactive)
O=C(CCSc1nc2cccc(F)c2c(=O)n1-c1cc(F)c(F)c(F)c1)Nc1ccc2c(c1)CCC2 | 9.08% (inactive)
O=C(CSc1nc2cccc(F)c2c(=O)n1-c1ccc(Cl)c(F)c1)Nc1ccc2c(c1)CCC2 | -1.63% (inactive)
O=C(CSc1nc2cccc(F)c2c(=O)n1-c1ccccc1)Nc1ccc2ncsc2c1 | 1.43% (inactive)
O=C(CSc1nc2ccccc2c(=O)n1-c1ccccc1)Nc1nc(-c2ccccc2)cs1 | 0.7% (inactive)
O=C(CSc1nc2ccccc2c(=O)n1-c1cc(Cl)cc(Cl)c1)NC1CCc2ccccc21 (stereo not given) | 11.3% (inactive)
Cc1cnc(NC(=O)CSc2nc3ccccc3c(=O)n2-c2ccccc2)s1 | -1.61% (inactive)
O=C(CSc1nc2ccccc2c(=O)n1-c1ccc(Cl)c(Cl)c1)Nc1cccc2c1CCC2 | -1.69% (inactive)
O=C(CSc1nc2cccc(F)c2c(=O)n1-c1ccc(F)c(F)c1)Nc1ccc2c(c1)CCC2 | 1.72% (inactive)

same assay, conditions: West Nile virus-infected cells, antiviral inhibition; at 100 µM (top of the series)

Compound | inhibition
O=C(CSc1nc2cccc(F)c2c(=O)n1-c1ccccc1)NC1Cc2ccccc2C1 | 0.89% (inactive)
O=C(CSc1nc2cccc(F)c2c(=O)n1-c1ccccc1)Nc1cccc2ccccc12 | -1.94% (inactive)
O=C(CSc1nc2ccccc2c(=O)n1-c1cc(Cl)cc(Cl)c1)NC1Cc2ccccc2C1 | -3.26% (inactive)
O=C(CCCCSc1nc2ccccc2c(=O)n1-c1ccccc1)Nc1ccc2c(c1)CCC2 | 18.5% (inactive)
O=C(CCSc1nc2cccc(F)c2c(=O)n1-c1ccc(F)c(F)c1)Nc1ccc2c(c1)CCC2 | -1.56% (inactive)
O=C(CCCSc1nc2cccc(F)c2c(=O)n1-c1ccccc1)Nc1ccc2c(c1)CCC2 | -2.02% (inactive)
O=C(CCCCSc1nc2cccc(F)c2c(=O)n1-c1ccc(Cl)c(Cl)c1)Nc1ccc2c(c1)CCC2 | -1.71% (inactive)
O=C(CSc1nc2ccccc2c(=O)n1-c1ccccc1)Nc1nccs1 | -0.12% (inactive)
O=C(CSc1nc2ccccc2c(=O)n1-c1ccccc1)NC1Cc2ccccc2C1 | -2% (inactive)
O=C(CCCSc1nc2cccc(F)c2c(=O)n1-c1ccc(F)c(Br)c1)Nc1ccc2c(c1)CCC2 | -2.67% (inactive)
O=C(CCCCSc1nc2cccc(F)c2c(=O)n1-c1cc(F)c(F)c(F)c1)Nc1ccc2c(c1)CCC2 | -1.19% (inactive)
O=C(CCSc1nc2cccc(F)c2c(=O)n1-c1ccc(F)c(Br)c1)Nc1ccc2c(c1)CCC2 | -1.52% (inactive)
O=C(CSc1nc2ccccc2c(=O)n1-c1ccccc1)Nc1ccc2c(c1)OCO2 | 2.32% (inactive)
O=C(CSc1nc2ccccc2c(=O)n1-c1ccccc1)N1CCCCCC1 | -1.69% (inactive)
O=C(CSc1nc2ccccc2c(=O)n1-c1ccccc1)NC1CCCc2ccccc21 (stereo not given) | -2% (inactive)
O=C(CCCSc1nc2cccc(F)c2c(=O)n1-c1ccc(Cl)c(F)c1)Nc1ccc2c(c1)CCC2 | -2.66% (inactive)
O=C(CCSc1nc2ccccc2c(=O)n1-c1ccc(Cl)c(Cl)c1)Nc1ccc2c(c1)CCC2 | -2.58% (inactive)
O=C(CCCSc1nc2cccc(F)c2c(=O)n1-c1cc(F)c(F)c(F)c1)Nc1ccc2c(c1)CCC2 | -2.94% (inactive)
O=C(CSc1nc2cccc(F)c2c(=O)n1-c1ccc(F)c(Br)c1)Nc1ccc2c(c1)CCC2 | -2.48% (inactive)
O=C(CSc1nc2ccccc2c(=O)n1-c1ccccc1)Nc1cccc2c1CCC2 | 1.83% (inactive)
O=C(CSc1nc2ccccc2c(=O)n1-c1ccccc1)Nc1nc2ccc([N+](=O)[O-])cc2s1 | -2.6% (inactive)
O=C(CSc1nc2cccc(F)c2c(=O)n1-c1ccccc1)Nc1ccc2c(c1)OCO2 | 0.09% (inactive)
O=C(CSc1nc2ccccc2c(=O)n1-c1cc(Cl)cc(Cl)c1)Nc1cccc2ccccc12 | -0.85% (inactive)

Compound | inhibition
O=C(CSc1nc2ccccc2c(=O)n1-c1ccccc1)Nc1ncc([N+](=O)[O-])s1 | -1.85% (inactive)
Cc1csc(NC(=O)CSc2nc3ccccc3c(=O)n2-c2ccccc2)n1 | -3.31% (inactive)
O=C(CCCSc1nc2cccc(F)c2c(=O)n1-c1ccc(Cl)c(Cl)c1)Nc1ccc2c(c1)CCC2 | -2.38% (inactive)
O=C(CSc1nc2ccccc2c(=O)n1-c1ccccc1)Nc1nc2cc(Cl)ccc2o1 | 8.31% (inactive)
O=C(CSc1nc2cccc(F)c2c(=O)n1-c1ccc(Cl)c(Cl)c1)Nc1ccc2c(c1)CCC2 | -2.48% (inactive)
O=C(CCCSc1nc2ccccc2c(=O)n1-c1ccccc1)Nc1ccc2c(c1)CCC2 | -0.62% (inactive)
O=C(CCSc1nc2cccc(F)c2c(=O)n1-c1ccc(Cl)c(Cl)c1)Nc1ccc2c(c1)CCC2 | -1.05% (inactive)
O=C(CSc1nc2ccccc2c(=O)n1-c1ccc(Cl)c(Cl)c1)Nc1ccc2c(c1)OCO2 | -2.42% (inactive)
O=C(CCCCSc1nc2cccc(F)c2c(=O)n1-c1ccc(F)c(Br)c1)Nc1ccc2c(c1)CCC2 | -1.81% (inactive)
O=C(CCCCSc1nc2cccc(F)c2c(=O)n1-c1ccc(F)c(F)c1)Nc1ccc2c(c1)CCC2 | 0.09% (inactive)
Cc1nc2cc(NC(=O)CSc3nc4ccccc4c(=O)n3-c3ccccc3)ccc2s1 | 2.35% (inactive)
O=C(CSc1nc2ccccc2c(=O)n1-c1ccccc1)Nc1ccc2ncsc2c1 | -0.65% (inactive)
O=C(CSc1nc2cccc(F)c2c(=O)n1-c1ccccc1)Nc1cccc2c1CCC2 | -1.2% (inactive)
O=C(CCCCSc1nc2cccc(F)c2c(=O)n1-c1ccccc1)Nc1ccc2c(c1)CCC2 | -1.05% (inactive)
O=C(CCCSc1nc2cccc(F)c2c(=O)n1-c1ccc(F)c(F)c1)Nc1ccc2c(c1)CCC2 | -2.48% (inactive)
O=C(CCCCSc1nc2cccc(F)c2c(=O)n1-c1ccc(Cl)c(F)c1)Nc1ccc2c(c1)CCC2 | -0.34% (inactive)
O=C(CSc1nc2ccccc2c(=O)n1-c1ccc(F)c(Cl)c1)Nc1cccc2ccccc12 | -1.32% (inactive)
O=C(CSc1nc2ccccc2c(=O)n1-c1ccc(Cl)c(Cl)c1)Nc1cccc2ccccc12 | -1.85% (inactive)
O=C(CSc1nc2cccc(F)c2c(=O)n1-c1ccccc1)NC1CCCc2ccccc21 (stereo not given) | -0.94% (inactive)
O=C(CCSc1nc2cccc(F)c2c(=O)n1-c1ccc(Cl)c(F)c1)Nc1ccc2c(c1)CCC2 | 3.09% (inactive)
O=C(CSc1nc2ccccc2c(=O)n1-c1ccccc1)NC1CCc2ccccc21 (stereo not given) | -0.61% (inactive)
O=C(CSc1nc2ccccc2c(=O)n1-c1ccccc1)Nc1cccc(-c2ccccc2)c1 | 0.04% (inactive)
O=C(CSc1nc2ccccc2c(=O)n1-c1ccccc1)Nc1cccc2ccccc12 | -1.05% (inactive)

tested on: West Nile virus-infected cells, antiviral inhibition; test: as above; details: not given

IC50 | Compound
2.73 µM | O=C(CSc1nc2ccccc2c(=O)n1-c1cc(Cl)cc(Cl)c1)Nc1ccc2c(c1)CCC2
8.09 µM | O=C(CSc1nc2ccccc2c(=O)n1-c1ccc(Cl)c(Cl)c1)Nc1ccc2c(c1)CCC2
16.5 µM | O=C(CSc1nc2cccc(F)c2c(=O)n1-c1cc(F)c(F)c(F)c1)Nc1ccc2c(c1)CCC2
9.17 µM and 11.7 µM | O=C(CSc1nc2ccccc2c(=O)n1-c1ccccc1)Nc1ccc2c(c1)CCC2
